This passage reports GI50 and TGI results from PubChem BioAssay (NCI).

Some test systems named below: COLO 205 colon; M14 melanoma; SK-MEL-5 melanoma; HOP-62 NSCLC; NCI-H226 lung; K-562 leukemia; MDA-MB-231 breast; SK-OV-3 ovarian; SF-539 CNS; HT29 colon.
Experiment in all cases: DTP human tumour cell line panel, 48 h

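A five-concentration, 48-hour dose response in 96-well plates underlies each endpoint, interpolated linearly between surrounding concentrations. Abbreviation: GI50, concentration required for 50% inhibition of growth. TGI: total growth inhibition.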

The GI50 is the concentration at which growth is held to half of that of the control. Usually TGI stands for the concentration giving total growth inhibition.

With `CCOCCc1c(O)nc(SC)[nH]c1=O`, the GI50 was more than 100000 nM in the assay with COLO 205 colon; more than 100 µM with M14 melanoma; more than 100 µM in the assay with SK-MEL-5 melanoma; more than 100 µM with HOP-62 NSCLC; more than 100 µM with NCI-H226 lung; more than 100 µM in the assay on K-562 leukemia. Also, the GI50 in the assay with MDA-MB-231 breast, with SK-OV-3 ovarian, in the assay on SF-539 CNS and in the assay on HT29 colon was more than 100 µM each time. Moreover, the TGI in the assay with COLO 205 colon, in the assay with M14 melanoma, in the assay with SK-MEL-5 melanoma, with HOP-62 NSCLC, in the assay on NCI-H226 lung and in the assay with K-562 leukemia was more than 100 µM throughout. Besides, the TGI in the assay with MDA-MB-231 breast, in the assay with SK-OV-3 ovarian, in the assay on SF-539 CNS and with HT29 colon was more than 100 µM each time.

As to `O=C1Nc2ccccc2C1(c1ccc(O)c(F)c1)c1ccc(O)c(F)c1`, the GI50 in the assay on COLO 205 colon is 297 nM; with M14 melanoma, 12 µM; with SK-MEL-5 melanoma it was 14.7 µM; with HOP-62 NSCLC, 16.9 µM; with NCI-H226 lung, 11 µM; with K-562 leukemia, 11.6 µM. Besides, the GI50 with MDA-MB-231 breast was 13.4 µM; with SK-OV-3 ovarian it was 21.1 µM; in the assay with SF-539 CNS, 12.6 µM; in the assay with HT29 colon, 22.7 µM. Besides, the TGI with COLO 205 colon was 1.98 µM; with M14 melanoma, 65.5 µM; in the assay on SK-MEL-5 melanoma it was 29.9 µM; in the assay on HOP-62 NSCLC, 44.5 µM; in the assay on NCI-H226 lung it was 39.7 µM; with K-562 leukemia, more than 100 µM. Further, the TGI in the assay with MDA-MB-231 breast amounted to 35.5 µM; with SK-OV-3 ovarian it was 52 µM; in the assay on SF-539 CNS, 36.8 µM; in the assay with HT29 colon, 48.5 µM.

Consider `COc1ccc(Nc2c3c4c(cccc4[nH]c2=O)C(=O)c2ccccc2-3)cc1`, for which the GI50 was 19.1 nM in the assay on COLO 205 colon; less than 0.0192 µM in the assay on M14 melanoma; less than 0.0172 µM in the assay on SK-MEL-5 melanoma; 0.0457 µM with HOP-62 NSCLC; 1.2 µM in the assay with NCI-H226 lung; 0.0451 µM in the assay with MDA-MB-231 breast. Also, the GI50 in the assay with SK-OV-3 ovarian is 0.0492 µM; with SF-539 CNS, 0.0206 µM; in the assay on HT29 colon, less than 0.01 µM. The TGI was 0.0446 µM in the assay with COLO 205 colon; more than 100 µM in the assay with M14 melanoma; 0.0451 µM in the assay on SK-MEL-5 melanoma; more than 100 µM in the assay with HOP-62 NSCLC; more than 100 µM in the assay on NCI-H226 lung; more than 56.3 µM in the assay on SK-OV-3 ovarian. In the assay with SF-539 CNS, this molecule returned a TGI of 0.0687 µM.

`COc1ccc(/C=C2\N=C(c3ccccc3)N(c3cc(C(F)(F)F)ccc3Cl)C2=O)cc1OC`: the GI50 in the assay on COLO 205 colon is 74000 nM; in the assay with M14 melanoma it was 28.5 µM; in the assay on SK-MEL-5 melanoma, 25 µM; in the assay with HOP-62 NSCLC, 21.1 µM; in the assay with NCI-H226 lung it was 56.6 µM; with K-562 leukemia it was 31.2 µM. Further, the GI50 in the assay on MDA-MB-231 breast was 87 µM; with SK-OV-3 ovarian it was more than 100 µM; in the assay with SF-539 CNS, 24.2 µM; with HT29 colon it was 26.9 µM. In addition, the TGI in the assay on COLO 205 colon was more than 100 µM; in the assay on M14 melanoma, 65.8 µM; with SK-MEL-5 melanoma it was 54.9 µM; in the assay on HOP-62 NSCLC, 51 µM; in the assay on NCI-H226 lung, more than 100 µM; in the assay on K-562 leukemia it was 87.6 µM. Moreover, the concentration for total growth inhibition (TGI) was more than 100 µM in the assay on MDA-MB-231 breast, more than 100 µM in the assay with SK-OV-3 ovarian, 57 µM in the assay on SF-539 CNS and 63.1 µM with HT29 colon.

As for `COc1cc(C(=O)NC2CCN(C)CC2)ccc1Nc1ncc2c(n1)N(C1CCCC1)CC(F)(F)C(=O)N2C`, the GI50 in the assay with COLO 205 colon was less than 10 nM; in the assay with M14 melanoma, less than 0.0148 µM; in the assay on SK-MEL-5 melanoma, less than 0.0311 µM; in the assay with HOP-62 NSCLC it was less than 0.0167 µM; with NCI-H226 lung it was 2.17 µM; with K-562 leukemia, less than 0.01 µM. Further, the GI50 was less than 0.0186 µM with MDA-MB-231 breast, less than 0.0133 µM with SK-OV-3 ovarian, 0.0215 µM with SF-539 CNS and less than 0.01 µM in the assay with HT29 colon. The TGI in the assay with COLO 205 colon was 0.064 µM; with M14 melanoma it was 5.09 µM; in the assay with SK-MEL-5 melanoma, 1.28 µM; in the assay with HOP-62 NSCLC, 2.61 µM; in the assay with NCI-H226 lung, 14.3 µM; in the assay with K-562 leukemia it was 4.86 µM. The total growth inhibition concentration (TGI) with MDA-MB-231 breast was found to be 17.3 µM; with SK-OV-3 ovarian, 0.761 µM; in the assay with SF-539 CNS it was 5.13 µM; in the assay with HT29 colon, 11.1 µM.

Regarding `C[N+](C)(C)CCC(=O)N1C/C(=C\c2ccccc2)C(=O)/C(=C/c2ccccc2)C1`, the TGI was found to be 13.4 µM in the assay with COLO 205 colon; 7.54 µM in the assay with M14 melanoma; 22.6 µM in the assay with SK-MEL-5 melanoma; 33.6 µM in the assay with HOP-62 NSCLC; 20 µM with NCI-H226 lung; 6.3 µM in the assay on K-562 leukemia. The TGI in the assay with MDA-MB-231 breast was found to be 9.82 µM; in the assay with SK-OV-3 ovarian it was 46.8 µM; with SF-539 CNS it was 11.8 µM; with HT29 colon it was 7.93 µM.

Regarding `O=S(=O)(O)c1ccc(Cl)cc1.[Cd]`, the GI50 was more than 100000 nM in the assay on COLO 205 colon; more than 100 µM in the assay on M14 melanoma; 4.58 µM in the assay on SK-MEL-5 melanoma; more than 100 µM with HOP-62 NSCLC; more than 100 µM with NCI-H226 lung; 37.5 µM with K-562 leukemia. The GI50 in the assay on MDA-MB-231 breast was more than 100 µM; in the assay with SK-OV-3 ovarian, more than 100 µM; in the assay on SF-539 CNS it was 13.7 µM; in the assay on HT29 colon, more than 100 µM. For the same molecule, the concentration for total growth inhibition (TGI) is more than 100 µM in the assay on COLO 205 colon; more than 100 µM with M14 melanoma; 16.9 µM in the assay on SK-MEL-5 melanoma; more than 100 µM in the assay with HOP-62 NSCLC; more than 100 µM with NCI-H226 lung; more than 100 µM in the assay with K-562 leukemia. The TGI in the assay with MDA-MB-231 breast was more than 100 µM; in the assay with SK-OV-3 ovarian, more than 100 µM; in the assay on SF-539 CNS, 32.4 µM; with HT29 colon, more than 100 µM.

As to `COc1ccc2c(CC(=O)O)cc(=O)oc2c1`, the TGI in the assay on COLO 205 colon, in the assay on M14 melanoma, with SK-MEL-5 melanoma, in the assay with HOP-62 NSCLC, with NCI-H226 lung and in the assay with K-562 leukemia was more than 100 µM in each case. For the same molecule, the TGI in the assay with MDA-MB-231 breast, with SF-539 CNS and with HT29 colon was more than 100 µM each time.
